US20090202499A1, “Human Telomerase Reverse Transcriptase Peptides” (priority 2006, published 2009)
“Also recorded” adds a separate entry of the source.

What was measured:
[1] = test system: RMA-B7 target cells; experiment: hTRT pDNA immunization of HLA-B7 Tg mice, 51Cr-release assay (in vivo processing); conditions: for % Responders / Responders/Total: hTRT pDNA immunized mice, responder when >10% specific lysis; for Responders/Total: E:T 60:1; for processing and CTL response after hTRT plasmid DNA immunization (in words): splenocytes restimulated in vitro with peptide
Experimental: DNA immunization. A DNA vector coding for the hTRT expressed under the control of CMV promoter was purified on plasmid Giga Kit columns under endotoxin-free conditions (Qiagen, Hilden, Germany). Anesthetized HLA-B*0702 transgenic mice were injected with 50 micro-liters of cardiotoxin into each tibialis anterior muscle 5-6 days prior DNA injection. For vaccination, 50 micro-liters of DNA (1 micro-gram/micro-liter in PBS) was injected into each pretreated muscle at day 0 and day 14. Ten days later, spleen cells of individual mice were separately restimulated in vitro with each relevant peptide (10 micrograms/ml) for 6 days. Effector CTL cells were tested in a standard 4 hr ^51Cr-release assay, using RMA-B7 cells (HLA-B*0702 transfected RMA cells) pulsed with test peptide or control peptide (CMV p65-derived R10TV restricted to HLA-B7). Specific % lysis as indicated below. In vivo immunization procedures were preformed in accordance with approved animal protocols at the University of California, San Diego or the Pasteur Institute, respectively.
(§1) CTL assays. Both murine and human CTL were detected by the ^51Cr release assay performed as previously described (14). Briefly, HLA-B7^+ antigen presenting cells (RMA-B7 or T2-B7 cells) were labeled for 1 hr with 100 micro-Ci of Na2^51CrO4 (Perkin Elmer). Washed cells (5×10^3 per well) were mixed in 96-well plates in 100 micro-liters/well with each peptide (at 10 micro-grams/ml or lower concentration) and 100 micro-liters of the CTL effector cells (at various E:T ratio) in RPMI medium. The plates were incubated for 4-5 hrs at 37° C. (5% CO2). The supernatants were harvested and counted on a Wallac 1470 Wizard Gamma counter. The percent lysis was calculated as 100 (cpmexp−cpmspont)/(cpmmax−cpmspont).
Next, we established which among the various candidate peptides was processed and presented from full-length hTRT. To this end, we immunized HLA-B7 Tg mice with hTRT plasmid DNA. […] As shown in Table IV some but not all the peptides were processed and presented in vivo. […] Based on this analysis, it appears that only three of the original seven peptides were processed and presented efficiently in vivo. […] Thus, selection using PAProC algorithm was per se unable to predict hTRT peptides that would be cleaved and become immunogenic in vivo.
HLA-B7 Tg mice were immunized with a pDNA coding for full-length hTRT under the CMV promoter. ^51Cr-release assay was performed after 6 days of in vitro restimulation with respective peptide. Mice were considered responders when >10% specific lysis was observed. Tests were run in duplicate at an E:T ratio of 60:1, using RMA-B7 target cells.

[2] = test system: T2-B7 pulsed with peptide; experiment: small scale in vitro immunization of normal donor PBMC (96 well plate), micro 51Cr-release CTL assay; format: cell-based, human; conditions: for CTL response (specific lysis) Donor 1 / CTL response (specific lysis) Donor 2 / CTL response (specific lysis) Donor 3 / CTL response (specific lysis) Donor 4 / CTL response (specific lysis) Donor 5 / CTL response (specific lysis) Donor 6 / CTL response (specific lysis) Donor 7 / CTL response (specific lysis) Donor 8: HLA-B7+ normal donor PBMC, day 10-11, approximate E:T 10:1; for CTL response of normal donor PBMC in micro-CTL assay (in words): eight HLA-B7+ normal donors; for Low R/Total: low responders among eight donors; for High R/Total: responders considered at >50% specific CTL lysis, eight donors
Experimental: In vitro immunization procedures. In experiments shown in Table III and FIG. 3, immunizations were performed in 96 well plates. Briefly, 2×10^5 irradiated (6000 rads) human PBMC were plated in 96 (flat) well-plate in 100 micro-liters of complete human medium (RPMI 1640 medium containing 10% heat inactivated human AB serum, 2 mM glutamine, 50 micro-grams/ml streptomycin and 50 micro-grams/ml penicillin) with 100 micro-grams/ml of peptide. 12 wells per peptide were plated per patient. Then 2×10^5 PBMC in 100 micro-liters of complete human medium were added into each well. Four days later 100 micro-liters of medium were replaced with 100 micro-liters of fresh complete human medium containing 80 IU/ml of IL-2. At day 6-7, 100 IU/ml of IL-2 were added and wells were split into two. On day 10-11 micro-cytotoxicity assay was performed. In experiments shown in FIGS. 4 and 5 human PBMC were stimulated in vitro in 24 well plate with autologous, irradiated, peptide-pulsed adherent cells in the presence of IL-2 and IL-7 as previously described (12). On day 4 to 5 after restimulation, effector CTL were tested in a standard ^51Cr-release assay.
as §1
To further assess the immunogenicity of the selected peptide candidates as well as their ability to expand precursor CD8 T cell in human PBMC, the following experiment was performed. PBMC from eight HLA-B7^+ normal donors were screened in a small scale in vitro immunization assay (96 well plate assay) to determine the level of responses against each individual peptide. As indicated the response to these peptides varied among the eight donors. […] Thus, the results of this in vitro assay narrowed the spectrum of immunogenic peptides beyond those identified in vivo in HLA-B7 Tg mice. A typical result of this type of analysis is shown in FIG. 3, which depicts the induction of CTL and their specificity in each of the twelve wells. As shown, there is considerable variability in the number of positive wells per peptide as well as in the percentage lysis which itself varied from peptide to peptide. This variation in the response to each peptide may be related to either an intrinsic characteristic of the peptide (e.g., its avidity) or a variation in the frequency of CD8 T cell precursors for that peptide among donors particularly in view of the format of the assay used.
PBMC from HLA-B7^+ normal blood donors were pulsed with the candidate peptide in 96 well plate assay (described in Material and Methods), and tested for lysis of T2-B7 pulsed with peptide on day 10-11. A micro ^51Cr-release assay was performed as described in Material and Methods. Responders were considered at >50% specific CTL lysis. CTL assays were performed at an approximate E:T ratio of 10:1. ND not done

CC(C)C[C@H](NC(=O)[C@H](CO)NC(=O)[C@@H](NC(=O)[C@H](C)NC(=O)[C@H](CCC(=O)O)NC(=O)[C@H](CCC(=O)O)NC(=O)[C@H](C)NC(=O)[C@@H]1CCCN1C(=O)[C@@H](N)CCCNC(=N)N)[C@@H](C)O)C(=O)O [p277]
% Responders [1]: 57% | Responders/Total [1]: 4/7 | processing and CTL response after hTRT plasmid DNA immunization (in words) [1]: greater CTL responses than the other peptides | CTL response (specific lysis) Donor 1 [2]: >50% | CTL response (specific lysis) Donor 2 [2]: >50% | CTL response (specific lysis) Donor 3 [2]: >50% | CTL response (specific lysis) Donor 4 [2]: >50% | CTL response (specific lysis) Donor 5 [2]: >50% | CTL response (specific lysis) Donor 6 [2]: <25% | CTL response (specific lysis) Donor 7 [2]: <25% | CTL response (specific lysis) Donor 8 [2]: <25% | CTL response of normal donor PBMC in micro-CTL assay (in words) [2]: strong responses in the majority of the subjects | Low R/Total [2]: 0/8 | High R/Total [2]: 5/8

CC(C)C[C@H](NC(=O)[C@H](CO)NC(=O)[C@H](CO)NC(=O)[C@H](CC(C)C)NC(=O)[C@H](CC(C)C)NC(=O)[C@H](Cc1ccccc1)NC(=O)[C@H](CO)NC(=O)[C@@H]1CCCN1C(=O)[C@@H](N)CCCNC(=N)N)C(=O)O [p342]
% Responders [1]: 29% | Responders/Total [1]: 2/7 | processing and CTL response after hTRT plasmid DNA immunization (in words) [1]: marginally immunogenic if any | CTL response (specific lysis) Donor 1 [2]: >25% | CTL response (specific lysis) Donor 2 [2]: >25% | CTL response (specific lysis) Donor 3 [2]: >25% | CTL response (specific lysis) Donor 4 [2]: >50% | CTL response (specific lysis) Donor 5 [2]: 0% | CTL response (specific lysis) Donor 6 [2]: <25% | CTL response (specific lysis) Donor 7 [2]: >25% | CTL response (specific lysis) Donor 8 [2]: 0% | CTL response of normal donor PBMC in micro-CTL assay (in words) [2]: strong responses but in fewer instances only | Low R/Total [2]: 4/8 | High R/Total [2]: 1/8

CC(C)C[C@H](NC(=O)[C@H](CC(C)C)NC(=O)[C@H](CCC(N)=O)NC(=O)[C@@H](NC(=O)[C@H](CC(C)C)NC(=O)[C@H](CCCNC(=N)N)NC(=O)[C@H](CCCNC(=N)N)NC(=O)[C@@H]1CCCN1C(=O)[C@@H](N)CC(=O)O)C(C)C)C(=O)O [p444]
% Responders [1]: 0% | Responders/Total [1]: 0/4 | processing and CTL response after hTRT plasmid DNA immunization (in words) [1]: apparently not processed; also recorded: marginally immunogenic if any | CTL response (specific lysis) Donor 3 [2]: <25% | CTL response (specific lysis) Donor 4 [2]: >25% | CTL response (specific lysis) Donor 5 [2]: 0% | CTL response (specific lysis) Donor 6 [2]: 0% | CTL response (specific lysis) Donor 7 [2]: 0% | CTL response (specific lysis) Donor 8 [2]: <25% | CTL response of normal donor PBMC in micro-CTL assay (in words) [2]: poorly immunogenic in vitro; also recorded: poor immunogenicity | Low R/Total [2]: 1/8 | High R/Total [2]: 0/8

CC(C)C[C@H](NC(=O)[C@H](CCCNC(=N)N)NC(=O)[C@H](CCCNC(=N)N)NC(=O)[C@H](CC(C)C)NC(=O)[C@H](CS)NC(=O)[C@H](C)NC(=O)[C@H](CCCNC(=N)N)NC(=O)[C@@H](NC(=O)[C@@H](N)Cc1ccccc1)C(C)C)C(=O)O [p464]
% Responders [1]: 17% | Responders/Total [1]: 2/6 | processing and CTL response after hTRT plasmid DNA immunization (in words) [1]: marginally immunogenic if any | CTL response (specific lysis) Donor 1 [2]: >50% | CTL response (specific lysis) Donor 2 [2]: >50% | CTL response (specific lysis) Donor 3 [2]: 0% | CTL response (specific lysis) Donor 4 [2]: >25% | CTL response (specific lysis) Donor 5 [2]: <25% | CTL response (specific lysis) Donor 6 [2]: <25% | CTL response (specific lysis) Donor 7 [2]: <25% | CTL response (specific lysis) Donor 8 [2]: 0% | CTL response of normal donor PBMC in micro-CTL assay (in words) [2]: strong responses but in fewer instances only | Low R/Total [2]: 1/8 | High R/Total [2]: 2/8

CC(C)C[C@H](NC(=O)[C@H](C)NC(=O)[C@@H](NC(=O)[C@H](CC(C)C)NC(=O)[C@@H](NC(=O)[C@@H](NC(=O)CNC(=O)[C@@H]1CCCN1C(=O)[C@@H](N)CC(C)C)[C@@H](C)O)[C@@H](C)O)[C@@H](C)O)C(=O)O [p1107, LPGTTLTAL]
% Responders [1]: 50% | Responders/Total [1]: 3/6 | processing and CTL response after hTRT plasmid DNA immunization (in words) [1]: greater CTL responses than the other peptides | CTL response (specific lysis) Donor 1 [2]: >50% | CTL response (specific lysis) Donor 2 [2]: >50% | CTL response (specific lysis) Donor 3 [2]: 0% | CTL response (specific lysis) Donor 4 [2]: >50% | CTL response (specific lysis) Donor 5 [2]: >25% | CTL response (specific lysis) Donor 6 [2]: <25% | CTL response (specific lysis) Donor 7 [2]: >25% | CTL response (specific lysis) Donor 8 [2]: 0% | CTL response of normal donor PBMC in micro-CTL assay (in words) [2]: strong responses but in fewer instances only | Low R/Total [2]: 2/8 | High R/Total [2]: 3/8

CC[C@H](C)[C@H](NC(=O)[C@@H](NC(=O)[C@H](CCCCN)NC(=O)[C@H](Cc1ccccc1)NC(=O)[C@H](CC(=O)O)NC(=O)[C@H](CO)NC(=O)[C@@H]1CCCN1C(=O)[C@@H](N)CC(C)C)[C@@H](C)O)C(=O)N[C@@H](CC(C)C)C(=O)O [p1123]
% Responders [1]: 50% | Responders/Total [1]: 3/6 | processing and CTL response after hTRT plasmid DNA immunization (in words) [1]: greater CTL responses than the other peptides | CTL response (specific lysis) Donor 1 [2]: >50% | CTL response (specific lysis) Donor 2 [2]: >50% | CTL response (specific lysis) Donor 3 [2]: >50% | CTL response (specific lysis) Donor 4 [2]: <25% | CTL response (specific lysis) Donor 5 [2]: >50% | CTL response (specific lysis) Donor 6 [2]: >50% | CTL response (specific lysis) Donor 7 [2]: >50% | CTL response (specific lysis) Donor 8 [2]: >50% | CTL response of normal donor PBMC in micro-CTL assay (in words) [2]: strong responses in the majority of the subjects | Low R/Total [2]: 0/8 | High R/Total [2]: 7/8
